Several values for one entry are separate records, joined by “and”; a condition that tells them apart may be missing. Equal values may be shown once.
Legend:
[1] = system: middle cerebral artery occlusion (MCAO) stroke animal model; test: Cerebral infarction volume by TTC staining of brain sections after 1 h MCAO/reperfusion; format: in vivo, rat; details: for cerebral infarction inhibited by: 4 hours after reperfusion (FIG. 11); for concentration at which the size of cerebral infarction was inhibited most effectively: i.v. 1, 2, 5, 10 and 20 mg/kg
[2] = system: middle cerebral artery occlusion (MCAO) stroke animal model; test: Evaluation of neurologic deficit (static reflex test and forelimb placing test) after MCAO/reperfusion; format: in vivo, rat; details: for neuronal damage / motor skill deficit improved: administered 6 hours after MCAO/reperfusion, Example 1 (FIG. 10)
Protocol: Forelimb placing was evaluated by the method described (0: immediate and complete placing, 1: incomplete and/or delayed placing, 2: no placing) (De Ryck M. et al., Stroke 20; 1388-1390). Points of static reflex and forelimb placing of each animal were summed.

stroke animal model = details: cited from earlier work
[3] = system: middle cerebral artery occlusion (MCAO) stroke animal model; test: Rota-rod test (motor skill) after MCAO/reperfusion; details: i.v. 5 mg/kg; for motor skill recovered to, by normal motor skill: 6 hours after MCAO/reperfusion (FIG. 9)
Protocol: Motor skill of a rat damaged by MCAO was investigated by measuring retention time on Rota-rod (Rota-rod test).
Retention time of each rat on Rota-rod at 5 rpm was measured for 24 hours after MCAO for 1 hour. Next, each rat was also forced to stay on Rota-rod operating at the speeds of 10 rpm and 15 rpm and retention time of each rat was measured at one hour interval. […] The points herein were obtained from repeated experiments, which were performed at 1 hour interval at the speeds of 10 rpm and 15 rpm.

[4] = i.v. 5 mg/kg each drug, 6 hours after reperfusion (Examples 3-8)
[5] = i.v. 2.5 mg/kg each drug, 6 hours after reperfusion (Examples 9-12)
[6] = 6 hours after reperfusion (FIG. 23)
[7] = administered 4 hours after neuronal damage, Example 2 (FIG. 13)
[8] = administered 6 hours after neuronal damage (Examples 4-7)
[9] = i.v. 2.5 mg/kg each drug, 6 hours after reperfusion (Examples 9-12), 2.5 mg/kg

Molecule: chloro-2-hydroxy-5-(4-(trifluoromethyl)phenylethylamino)benzoate
- volume of cerebral infarction reduced by [1, 4]: 58%

Molecule: O=C(O)c1ccc(C(F)(F)F)cc1O [2-hydroxy-4-trifluoromethylbenzoic acid]
- volume of cerebral infarction reduced by [1, 5]: 30%

Molecule: ethyl pyruvate (pyruvoyloxyethane) [EP]
- infarcted regions (TTC staining) compared with the control group ([1]; 5 mg/kg, 6 hours after reperfusion (FIG. 1)): significantly decreased
- volume of ischemia region ([1]; i.v. 1 mg/kg, 6 hours after reperfusion, 1 h MCAO (FIG. 2)): not changed
- cerebral infarction inhibited by ([1]; i.v. 5 mg/kg each drug): 48%
- volume of cerebral infarction reduced by [1, 4]: 66%
- infarction volume reduced to ([1]; i.v. 5 mg/kg, 30 minutes after reperfusion (FIG. 3)): 17.5%
- infarction volume reduced to ([1]; i.v. 5 mg/kg, 30 minutes before reperfusion (FIG. 3)): 9.0%
- infarction volume reduced to ([1]; i.v. 5 mg/kg, 6 hours after reperfusion (FIG. 3)): 34.0%
- volume of ischemia region reduced to, by the control animal ([1]; i.v. 5 mg/kg, 6 hours after reperfusion, 1 h MCAO (FIG. 2)): 33.6%
- infarction volume reduced to ([1]; i.v. 5 mg/kg, 9 hours after reperfusion (FIG. 3)): 58.7%
- infarction volume reduced to ([1]; i.v. 5 mg/kg, 12 hours after reperfusion (FIG. 3)): 58.0%
- infarction inhibiting effect when concentration increased ([1]; i.v. 10 mg/kg each versus 5 mg/kg, 6 hours after reperfusion (FIG. 23)): the effect was not increased
- volume of ischemia region reduced to, by the control animal ([1]; i.v. 10 mg/kg, 6 hours after reperfusion, 1 h MCAO (FIG. 2)): 41.7%
- volume of ischemia region reduced to, by the control animal ([1]; i.v. 20 mg/kg, 6 hours after reperfusion, 1 h MCAO (FIG. 2)): 61.6%
- concentration at which the size of cerebral infarction was inhibited most effectively [1, 6]: 5 mg/kg
- neuronal damage improved / neurologic deficit recovered [2, 7]: 40%
- neuronal damage / motor skill deficit improved [2]: 60%
- neuronal damage improved / neurologic deficit recovered [2, 8]: 40%
- neurologic deficit after MCAO/reperfusion ([2]; two days after MCAO/reperfusion (FIG. 5)): suppress neurologic deficit
- size of infarction reduced (stroke animal model; administered 24 hours after ischemia-reperfusion): approximately 20%
- size of infarction reduced to (stroke animal model; administered into the abdominal cavity 12 hours after ischemia-reperfusion): less than 50%
- period spent on Rota-rod ([3]; 6 hours after MCAO/reperfusion (FIG. 4)): significantly longer period on Rota-rod
- motor skill recovered to, by normal motor skill [3]: 70%

Molecule: CC(=O)Oc1cc(C(F)(F)F)ccc1C(=O)O [2-acetoxy-4-(trifluoromethyl)benzoic acid]
- volume of cerebral infarction reduced by [1, 5]: 23%

Molecule: CCNC(=O)C(C)=O [pyruvoylaminoethane]
- volume of cerebral infarction reduced by [1, 9]: 20% and 25%

Molecule: pyruvoylamininediethane
- volume of cerebral infarction reduced by [1, 9]: 40% and 31%

Molecule: CNCCC(Oc1ccc(C(F)(F)F)cc1)c1ccccc1 (centres unmarked) [fluoxetine chloride, N-methyl-[4-(trifluoromethyl)phenoxy]benzenepropaneamine]
- volume of cerebral infarction reduced by [1, 4]: 59%
- concentration at which the size of cerebral infarction was inhibited most effectively [1, 6]: 5 mg/kg

Molecule: chloro-2-hydroxy-5-(2-(2,4,5-trichlorophenoxy)ethylamino)benzoic acid
- volume of cerebral infarction reduced by [1, 4]: 64%
- neuronal damage improved / neurologic deficit recovered [2, 8]: very weak

Molecule: chloro-2-hydroxy-5-(2,3,5,6-tetrafluoro-4-(trifluoromethyl)benzylamino)benzoate
- cerebral infarction inhibited by ([1]; i.v. 5 mg/kg each drug): 30%
- neuronal damage improved / neurologic deficit recovered [2, 7]: very weak

Molecule: CC(=O)Oc1ccccc1C(=O)O [acetylsalicylic acid]
- neuronal damage / motor skill deficit improved [2]: very weak
- motor skill recovered to, by normal motor skill [3]: 30%

Molecule: chloro-5-(2-(2,4-dichlorophenoxy)ethylamino)-2-hydroxybenzoic acid
- volume of cerebral infarction reduced by [1, 4]: 61%
- neuronal damage improved / neurologic deficit recovered [2, 8]: very weak

Molecule: chloro-2-hydroxy-5-(2-(4-methoxyphenoxy)ethylamino)benzoic acid
- volume of cerebral infarction reduced by [1, 4]: 53%
- neuronal damage improved / neurologic deficit recovered [2, 8]: very weak

Molecule: chloro-5-(2-(4-chlorophenoxy)ethylamino)-2-hydroxybenzoic acid
- volume of cerebral infarction reduced by [1, 4]: 55%
- neuronal damage improved / neurologic deficit recovered [2, 8]: very weak

Reference: patent US20100216749A1, “Combination Therapy for Neuroprotection” (S.H. PHARMA., LTD, priority 2007, published 2010)
